Literature values as cited in patent US20240277756A1 (NACAMED AS, priority 2021, published 2024).

What was measured:
[1] = oral
[2] = calculated log P values from Foye's Principles of Medicinal Chemistry, Seventh Edition (2011)

| Compound | absolute bioavailability (in words) [1] | log P [2] |
| --- | --- | --- |
| C[C@@H]1[C@H](O)[C@@H](C)/C=C/C=C/C=C/C=C/C=C/C=C/C=C/[C@H](O[C@@H]2O[C@H](C)[C@@H](O)[C@H](N)[C@@H]2O)C[C@@H]2O[C@](O)(C[C@@H](O)C[C@@H](O)[C@H](O)CC[C@@H](O)C[C@@H](O)CC(=O)O[C@H]1C)C[C@H](O)[C@H]2C(=O)O [amphotericin B] | very low |  |
| CCCc1nc(C)c2c(=O)nc(-c3cc(S(=O)(=O)N4CCN(CC)CC4)ccc3OCC)[nH]n12 [valdanafil] |  | 3.64 |
